From patent US20230173042A1, “METHODS OF TREATMENT WITH ASPARAGINASE” (JAZZ PHARMACEUTICALS IRELAND LTD., priority 2017, published 2023)

Test system: AML
Test: SynergyScreen of Pegcrisantaspase or Oncaspar with standard of care agents
Format: cell-based
Details: agent combined with Pegcrisantaspase (FIG. 13A) or Oncaspar (FIG. 13B)
Description: (§1) The special volcano plot of FIG. 9 relates compound sensitivity (as measured by ^10logIC50) to the presence of cancer hotspot mutations. […] The hotspot mutations were derived from statistical analyses of the recurrence patterns of mutations and copy number alterations in patients through separate studies. Axes and statistical analyses are identical to the volcano plot of FIG. 8. The cutoff p-level for significance is 0.32. […] Effect20 For determination of the effect of the compound on the activity of other anti-cancer agents in SynergyScreen™ experiments, a low, fixed concentration is used, corresponding to the concentration at which cell growth is inhibited by 20%. This concentration is determined using the dose-response curves of the single compounds. The concentration is the value on the x-as, corresponding to 80% viability of untreated at the y-axis.
(§2) See the tables depicted in FIG. 13A-FIG. 13B. Grey shading indicates synergistic activity. Light grey shading indicates one experiment and dark grey indicates two experiments. […] Example 5: mPEG-r-crisantaspase conjugates (Pegcrisantaspases) was tested in combination with ABT-737 against HL-60 cell line.

Structure (SMILES)	effect in AML when used with Pegcrisantaspase or Oncaspar
CC(C)C[C@H](NC(=O)[C@H](Cc1ccccc1)NC(=O)c1cnccn1)B(O)O [bortezomib]	increased effect
COc1cccc2c1C(=O)c1c(O)c3c(c(O)c1C2=O)C[C@@](O)(C(C)=O)C[C@@H]3O[C@H]1C[C@H](N)[C@H](O)[C@H](C)O1 [daunorubicin]	increased effect

Test system: DLBCL
Test: as above
Format: cell-based
Details: agent combined with Pegcrisantaspase (FIG. 13A) or Oncaspar (FIG. 13B)
Description: as §1, §2

Structure (SMILES)	effect in DLBCL when used with Pegcrisantaspase or Oncaspar
CC[C@]1(O)C[C@H]2CN(CCc3c([nH]c4ccccc34)[C@@](C(=O)OC)(c3cc4c(cc3OC)N(C=O)[C@H]3[C@@](O)(C(=O)OC)[C@H](OC(C)=O)[C@]5(CC)C=CCN6CC[C@]43[C@@H]65)C2)C1 [vincristine]	increased effect
O=C(Cc1cccc(OC(F)(F)F)c1)Nc1ccc(CCCCc2nnc(NC(=O)Cc3ccccn3)s2)nn1 [CB-839]	increased effect
CC(C)C[C@H](NC(=O)[C@H](Cc1ccccc1)NC(=O)c1cnccn1)B(O)O [bortezomib]	increased effect
CO[C@H]1C[C@@H]2CC[C@@H](C)[C@@](O)(O2)C(=O)C(=O)N2CCCC[C@H]2C(=O)O[C@H]([C@H](C)C[C@@H]2CC[C@@H](OCCO)[C@H](OC)C2)CC(=O)[C@H](C)/C=C(\C)[C@@H](O)[C@@H](OC)C(=O)[C@H](C)C[C@H](C)/C=C/C=C/C=C/1C [everolimus]	increased effect
